Test results from article PMC10253817, “Design, Pharmacological Characterization, and Molecular Docking of Minimalist Peptidomimetic Antagonists of α4β1 Integrin” (International Journal of Molecular Sciences, 2023).

Columns and labels:
Type in all cases: cell-based
α4β1 integrin = molecular target: T1, α4β1 integrin (Homo sapiens, UniProt P05556+P13612); test: α4β1 integrin-mediated Jurkat cell adhesion to VCAM-1; details: Jurkat cell adhesion to VCAM-1 (2 μg/mL); antag. = reduced cell adhesion; mean ± SD
T1 construct: Jurkat E6.1 cell line, which endogenously expresses α4β1 integrin; host or cells: Jurkat E6.1
Experimental: (§1) To this purpose, the ability of the best peptidomimetics to modulate cell adhesion mediated by integrins other than α4β1 was evaluated in HL60 cells, mainly expressing the leukocyte integrin αMβ2, and on K562 cells, mainly expressing α5β1, which shares a β1 subunit with the heterodimer α4β1. […] In contrast, 13 was a moderate promoter of cell adhesion mediated by αMβ2 integrin, behaving as an agonist. Regarding α5β1 integrin, none of the peptidomimetics employed were able to modulate K562 cell adhesion, thus being shown to be completely ineffective toward α5β1 integrin. The reference compound DS-70 was ineffective toward both αMβ2 and α5β1 integrins under the same experimental conditions (Table 3).
The assays were performed as previously described. Briefly, regarding adhesion assays on Jurkat E6.1 or HL-60 cells, black 96-well plates (Corning Costar) were coated overnight at 4 °C with FN or Fg (10 μg/mL) or VCAM-1 (2 μg/mL) in order to investigate α4β1 integrin-mediated cell adhesion. To avoid any kind of unspecific binding, plates were incubated with 100 μL/well of blocking solution (1% BSA in HBSS) for 30 min at 37 °C. Cells were counted, stained with the CellTracker green CMFDA (12.5 μM, 30 min at 37 °C, Life Technologies Italia, Milan, Italy) and after three washes, were preincubated with increasing concentrations of new compounds (10^−10–10^−4 M) or with the vehicle (methanol) for 30 min at 37 °C.
Then, cells were plated (500,000/well) on coated wells and incubated for 30 min at 37 °C. Afterwards nonadherent cells were removed via washing with a blocking solution, and the remaining adhered cells were lysed with 0.5% Triton X-100 in PBS (30 min at 4 °C). Green fluorescence was measured (Ex485 nm/Em535 nm) using an EnSpire Multimode Plate Reader (PerkinElmer, Waltham, MA, USA).
(§2) In both types of adhesion assay, the number of adherent cells was determined via comparison with a standard curve made in the same plate. Experiments were carried out in quadruplicate and repeated at least three times. Data analysis and EC50 or IC50 values were calculated using GraphPad Prism 9.5.1 (GraphPad Software, San Diego, CA, USA).

α5β1 integrin = molecular target: T2, α5β1 integrin (Homo sapiens, UniProt P05556+P08648); test: α5β1 integrin-mediated K562 cell adhesion to FN; details: K562 cell adhesion to FN (10 μg/mL)
T2 construct: K562 cells, mainly expressing α5β1, which shares a β1 subunit with the heterodimer α4β1; host or cells: K562 (PMA-treated)
Experimental: as §1
For adhesion assays mediated by α5β1 integrin, K562 cells were pre-treated with PMA (64.85 nM, Merck Life Science, Milan, Italy) for 48 h to enhance α5β1 integrin expression. 96-well plates were coated via passive adsorption with FN (10 μg/mL) overnight at 4 °C; then, the following day, plates were blocked by adding 100 μL/well of a blocking solution (1% BSA in PBS) and incubated for 1 h at 37 °C. K562 cells were counted and preincubated with various concentrations (10^−10–10^−4 M) of the peptides or with the vehicle for 30 min at RT. Then, K562 cells were plated (50,000 cells/well) and incubated at RT for 1 h. The wells were then washed three times with 1% BSA in PBS, and 50 μL of hexosaminidase substrate was added and incubated at RT for 1 h. After the addition of 100 μL of stopping solution (50 mM glycine and 5 mM EDTA, pH 10.4), plates were read at 405 nm in an EnSpire Multimode Plate Reader.
as §2
Cell culture. Jurkat E6.1 (expressing both α4β1 and αLβ2 integrin), K562 (expressing α5β1 integrin) and HL60 (expressing α Mβ2 integrin) cell lines were purchased from ATCC (Rockville, MD, USA); these cells were routinely cultured in RPMI-1640 (Life Technologies) supplemented with 1% glutamine and 10% fetal bovine serum (FBS). Cells were grown at 37 °C under 5% CO 2 humidified atmosphere. 40 h before the adhesion assays, K562 and HL60 cells were treated with 25 nM or 40 nM phorbol 12 -myristate 13-acetate (PMA; Sigma-Aldrich), respectively, to induced cell differentiation and to increased α5β1 or αMβ2 integrin expression on cell surface (Baiula et al., 2016).
Cell adhesion assays . Concentration-response curves, obtained from cell adhesion assays performed in […]
Figure S1. […]

ERK1/2 = test: Western blot, FN-induced ERK1/2 phosphorylation in Jurkat E6.1 cells; details: Jurkat E6.1 cells pre-treated with 10^−7, 10^−8, 10^−9 M, then FN (10 µg/mL) 30 min
Experimental: (§3) To this purpose, Jurkat E6.1 cells were pre-treated with different concentrations (10^−7, 10^−8, 10^−9 M) of the compounds and then exposed to FN (10 µg/mL) for 30 min. […] In addition, the effects observed on intracellular signaling were concentration-dependent, except for compound 13 on AKT activation.
(§4) Western blot analysis was performed as previously described, with the following modifications. […] For integrin antagonists, JurkatE6.1 cells were subsequently incubated with FN (10 μg/mL) at 37 °C for 30 min. At the end of the incubation period, Jurkat E6.1 cells were lysed on ice using T-PER® (Tissue Protein Extraction Reagent, Life Technologies Italia, Milan, Italy), supplemented with a phosphatase inhibitor cocktail. Protein extracts were quantified using a BCA Protein Assay (Pierce, Rockford, IL, USA). The proteins from the cytoplasmatic extract were denatured at 95 °C for 3 min, then equal amounts of protein samples (30–50 μg) were loaded and separated via 12% SDS-PAGE. Proteins were transferred onto a nitrocellulose membrane (Biorad, Hercules, CA, USA), which was blocked with 5% nonfat milk in a Tris-buffered saline (10 mM Tris-HCl, pH 8, containing 150 mM NaCl) containing 0.1% Tween 20 for 1 h at room temperature. Membranes were stained overnight at 4 °C with anti-actin antibody (1:5000, Merck Life Science, Milan, Italy) or with anti-phospho-ERK1/2, anti-total ERK1/2, anti-phospho-AKT, anti-total-AKT, or anti-phospho-JNK antibodies (1:1000; Cell Signaling Technology, Danvers, MA, USA). The membranes were incubated with anti-rabbit peroxidase-conjugated secondary antibodies at a dilution of 1:8000. Blots were developed with a SuperSignal West Pico chemiluminescent substrate. Protocols for digital image acquisition and analysis have previously been described.

AKT = test: Western blot, FN-induced AKT phosphorylation in Jurkat E6.1 cells; details: Jurkat E6.1 cells pre-treated with 10^−7, 10^−8, 10^−9 M, then FN (10 µg/mL) 30 min
Experimental: as §3, §4

JNK = test: Western blot, FN-induced JNK phosphorylation in Jurkat E6.1 cells; details: Jurkat E6.1 cells pre-treated with 10^−7, 10^−8, 10^−9 M, then FN (10 µg/mL) 30 min
Experimental: as §3, §4

T2 sequence (P08648 42-894 limits assumed): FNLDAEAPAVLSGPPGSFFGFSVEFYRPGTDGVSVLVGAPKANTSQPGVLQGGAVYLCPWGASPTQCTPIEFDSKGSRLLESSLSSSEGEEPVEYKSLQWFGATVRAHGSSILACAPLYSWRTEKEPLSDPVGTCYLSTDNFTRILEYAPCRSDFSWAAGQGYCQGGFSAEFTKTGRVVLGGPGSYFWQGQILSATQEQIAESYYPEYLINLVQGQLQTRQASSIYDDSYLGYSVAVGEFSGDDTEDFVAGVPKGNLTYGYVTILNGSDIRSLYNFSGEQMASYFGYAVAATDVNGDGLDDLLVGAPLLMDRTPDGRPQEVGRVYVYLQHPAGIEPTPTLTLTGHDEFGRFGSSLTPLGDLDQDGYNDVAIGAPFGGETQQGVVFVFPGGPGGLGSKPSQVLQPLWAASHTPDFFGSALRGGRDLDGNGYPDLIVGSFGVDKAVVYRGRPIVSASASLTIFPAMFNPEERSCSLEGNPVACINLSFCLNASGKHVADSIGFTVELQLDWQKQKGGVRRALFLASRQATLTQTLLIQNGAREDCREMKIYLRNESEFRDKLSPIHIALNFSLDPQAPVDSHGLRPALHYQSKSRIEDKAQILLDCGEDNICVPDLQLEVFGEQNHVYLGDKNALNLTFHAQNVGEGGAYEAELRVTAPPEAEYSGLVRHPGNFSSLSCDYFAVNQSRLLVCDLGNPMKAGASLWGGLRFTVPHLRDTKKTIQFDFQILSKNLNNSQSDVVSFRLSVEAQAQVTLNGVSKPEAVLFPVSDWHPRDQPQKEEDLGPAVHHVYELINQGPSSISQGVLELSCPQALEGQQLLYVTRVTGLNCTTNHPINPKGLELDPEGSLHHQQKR
T2 sequence (P08648 895-1049 partner limits assumed): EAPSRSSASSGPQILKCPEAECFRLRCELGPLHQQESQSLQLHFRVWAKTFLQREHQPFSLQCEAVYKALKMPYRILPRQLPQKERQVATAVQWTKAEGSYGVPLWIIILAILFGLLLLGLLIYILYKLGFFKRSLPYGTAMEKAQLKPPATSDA
T2 sequence (P05556 21-798): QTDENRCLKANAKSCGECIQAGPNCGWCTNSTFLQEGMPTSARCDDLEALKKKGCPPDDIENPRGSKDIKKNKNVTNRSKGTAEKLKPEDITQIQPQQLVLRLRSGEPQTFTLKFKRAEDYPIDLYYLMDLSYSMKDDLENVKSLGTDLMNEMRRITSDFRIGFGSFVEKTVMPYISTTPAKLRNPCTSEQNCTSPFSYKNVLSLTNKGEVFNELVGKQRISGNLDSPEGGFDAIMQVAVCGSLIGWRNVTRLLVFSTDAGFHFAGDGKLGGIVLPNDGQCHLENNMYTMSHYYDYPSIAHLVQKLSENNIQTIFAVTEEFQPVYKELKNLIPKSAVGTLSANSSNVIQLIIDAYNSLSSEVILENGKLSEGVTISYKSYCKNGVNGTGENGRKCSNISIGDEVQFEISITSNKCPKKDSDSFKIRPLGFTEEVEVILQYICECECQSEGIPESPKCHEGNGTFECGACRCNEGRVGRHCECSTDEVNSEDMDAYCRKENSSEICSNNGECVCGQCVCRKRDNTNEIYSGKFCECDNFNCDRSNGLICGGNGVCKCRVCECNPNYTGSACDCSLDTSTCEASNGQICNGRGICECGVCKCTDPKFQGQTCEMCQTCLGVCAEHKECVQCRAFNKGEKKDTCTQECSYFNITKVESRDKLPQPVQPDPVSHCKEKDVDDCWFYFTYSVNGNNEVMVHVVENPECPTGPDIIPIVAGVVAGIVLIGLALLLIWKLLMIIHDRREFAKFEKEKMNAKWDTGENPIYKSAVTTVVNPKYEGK
T1 sequence (P13612 34-1032): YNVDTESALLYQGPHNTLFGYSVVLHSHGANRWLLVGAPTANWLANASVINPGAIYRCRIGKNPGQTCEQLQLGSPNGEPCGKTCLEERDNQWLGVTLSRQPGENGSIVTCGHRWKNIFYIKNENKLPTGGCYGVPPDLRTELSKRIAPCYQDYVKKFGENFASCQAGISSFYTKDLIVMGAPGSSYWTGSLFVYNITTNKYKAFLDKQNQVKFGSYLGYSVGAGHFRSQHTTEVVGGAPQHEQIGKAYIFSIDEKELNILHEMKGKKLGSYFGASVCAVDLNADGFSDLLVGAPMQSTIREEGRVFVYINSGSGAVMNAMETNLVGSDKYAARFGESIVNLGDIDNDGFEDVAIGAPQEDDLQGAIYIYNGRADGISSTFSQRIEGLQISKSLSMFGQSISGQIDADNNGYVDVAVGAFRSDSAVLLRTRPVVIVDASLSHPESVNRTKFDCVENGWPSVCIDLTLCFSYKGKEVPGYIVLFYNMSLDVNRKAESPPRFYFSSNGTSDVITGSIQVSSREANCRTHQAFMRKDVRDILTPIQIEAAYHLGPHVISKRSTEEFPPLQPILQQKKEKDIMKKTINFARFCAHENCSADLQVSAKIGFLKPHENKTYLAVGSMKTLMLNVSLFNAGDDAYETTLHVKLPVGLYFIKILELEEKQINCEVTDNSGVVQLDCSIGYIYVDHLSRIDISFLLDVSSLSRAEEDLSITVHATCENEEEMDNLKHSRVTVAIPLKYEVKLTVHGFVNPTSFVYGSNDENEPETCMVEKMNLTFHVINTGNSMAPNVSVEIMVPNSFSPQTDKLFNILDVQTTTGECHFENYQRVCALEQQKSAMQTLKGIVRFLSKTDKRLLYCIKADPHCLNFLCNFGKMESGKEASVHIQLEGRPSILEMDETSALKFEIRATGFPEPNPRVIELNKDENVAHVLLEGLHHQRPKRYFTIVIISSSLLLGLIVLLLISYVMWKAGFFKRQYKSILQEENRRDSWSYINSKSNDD
T1 sequence (P05556 21-798): as the sequence (P05556 21-798) above

| IC50 (α4β1 integrin) | IC50 (α5β1 integrin) | SMILES | FN-induced ERK1/2 phosphorylation (ERK1/2) | FN-induced AKT phosphorylation (AKT) | FN-induced JNK phosphorylation (JNK) |
| --- | --- | --- | --- | --- | --- |
| 975 nM | > 5000 nM | CC(=O)N[C@@H](CNC(=O)Cc1ccc(NC(=O)Nc2ccccc2C)cc1)C(=O)NCC(=O)O [compound 3] | significantly prevented | significantly prevented | did not counteract |
| 54 nM | > 5000 nM | CCCNC(=O)[C@@H](CC(=O)NCC(=O)O)NC(=O)Cc1ccc(NC(=O)Nc2ccccc2C)cc1 [compound 8] | significantly prevented | significantly prevented | able to significantly prevent |
| 879 nM | > 5000 nM | Cc1ccccc1NC(=O)Nc1ccc(CNC(=O)C[C@@H](C)NC(=O)CC(=O)O)cc1 [compound 13] | significantly prevented | significantly prevented | did not counteract |
